In experiment [1] the test system is MOR coupling to Gαs/olf and Gαo. In words: Relative Gs/Go switching, MOR-G protein coupling in organotypic striatal slice cultures. It counts as cell-based. Particulars: rat striatal slices. As for the experimental part:
Striatal slices ([…]) were prepared using a McIlwain tissue chopper (Mickle Laboratory Engineering Co., Surrey, UK). Slices were carefully transferred to sterile, porous culture inserts (0.4 μm, Millicell-CM) using the rear end of a glass Pasteur pipette. Each culture insert unit contained 2 slices and was placed into one well of the 12-well culture tray. […] The pH value was adjusted to 7.2 with HEPES buffer.
Cultures were first incubated for 2 days to minimize the impact of injury from slice preparation. Incubator settings throughout the experiment were 36° C. with 5% CO2.
Slices were returned to culture medium with normal serum after each drug exposure. Tissues were harvested 16 hours after the last drug exposure by centrifugation.
For determination of MOR-G protein coupling, slices were homogenized to generate synaptic membranes. […] Following centrifugation, striatal membrane lysates were immunoprecipitated with immobilized anti-Gαs/olf or -Gαo conjugated with immobilized protein G-agarose beads. The level of MOR in anti-Gαs/olf or -Gαo immunoprecipitates was determined by Western blotting using specific anti-MOR antibodies.

The next experiment has as its target T1, μ opiate receptor (MOR) (Rattus norvegicus, UniProt P33535).
T1 construct: from tissue; host or cells: striatal tissue (membrane preparation)
In words: MOR agonist activity, [35S]GTPγS binding assay using striatal membranes. The format is biochemical. The following applies: for [35S]GTPγS binding to Gαo, FLNA-binding compound as agonist 0.1 μM: 0.1 μM compound; for [35S]GTPγS binding to Gαo, FLNA-binding compound as agonist 0.1 μM / [35S]GTPγS binding to Gαo, FLNA-binding compound as agonist 1 μM: striatal membranes; for [35S]GTPγS binding to Gαo, FLNA-binding compound as agonist 1 μM + BFNA: 1 μM compound + 1 μM β-funaltrexamine; for [35S]GTPγS binding to Gαo, FLNA-binding compound as agonist 1 μM: 1 μM compound; for % DAMGO + BFNA: relative to DAMGO + BFNA; for % DAMGO (0.1 μM) / % DAMGO (1 μM): relative to DAMGO. For orientation: GTPγS is a poorly hydrolysed GTP analogue; its binding reports G protein activation.

Experiment [2] can be described thus: Mouse hot-water tail-flick test. The format is in vivo. As for the experimental part: The mouse “tail flick” test was used to assay the relative antinociceptive activity of compositions containing a compound to be assayed. This assay was substantially that disclosed by Xie et al., 2005 J. Neurosci 25:409-416.
The mouse hot-water tail-flick test was performed by placing the distal third of the tail in a water bath maintained at 52° C. The latency until tail withdrawal from the bath was determined and compared among the treatments. A 10 second cutoff was used to avoid tissue damage. Data are converted to percentage of antinociception by the following formula: (response latency−baseline latency)/(cutoff−baseline latency)×100 to generate dose-response curves. […] Relative potency was determined as a ratio of the A50 values.
To assess tolerance to the antinociceptive effect, the compound was administered twice daily for 7 days at an A90 dose (dose that results in a 90% antinociceptive effect in the 52° C. warm-water tail-flick test), and the tail-flick test was performed daily after the a.m. dose.
(Thermal pain tests record how soon the animal reacts.)

In experiment [3] the target is Bn-VAKGL pentapeptide of filamin A (FLNA) (Homo sapiens, UniProt P21333). In words: FITC-NLX-based FLNA screening assay (FLNA peptide binding assay). The protocol: The final assay volume is 100 μl.
Compounds are tested in triplicate or quadruplicate.

The next experiment deals with filamin A (Homo sapiens, UniProt P21333). The following applies: Wang et al, 2008 PLoS One 3:e1554; read-out: affinity of binding to filamin A; cited from earlier work.

Read-outs that look alike come from different tables or passages of the source.

T1 sequence (P33535 whole entry): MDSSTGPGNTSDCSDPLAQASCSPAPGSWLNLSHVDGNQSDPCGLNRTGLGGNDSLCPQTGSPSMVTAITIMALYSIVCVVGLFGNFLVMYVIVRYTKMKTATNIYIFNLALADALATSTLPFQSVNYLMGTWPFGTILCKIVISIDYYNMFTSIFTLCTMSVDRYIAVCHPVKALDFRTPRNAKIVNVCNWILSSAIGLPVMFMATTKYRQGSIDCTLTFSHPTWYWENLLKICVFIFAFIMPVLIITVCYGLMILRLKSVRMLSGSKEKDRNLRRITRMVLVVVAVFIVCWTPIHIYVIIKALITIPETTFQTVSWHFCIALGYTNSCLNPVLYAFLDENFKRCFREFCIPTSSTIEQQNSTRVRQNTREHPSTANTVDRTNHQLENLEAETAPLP
filamin A, sequence (P21333 whole entry): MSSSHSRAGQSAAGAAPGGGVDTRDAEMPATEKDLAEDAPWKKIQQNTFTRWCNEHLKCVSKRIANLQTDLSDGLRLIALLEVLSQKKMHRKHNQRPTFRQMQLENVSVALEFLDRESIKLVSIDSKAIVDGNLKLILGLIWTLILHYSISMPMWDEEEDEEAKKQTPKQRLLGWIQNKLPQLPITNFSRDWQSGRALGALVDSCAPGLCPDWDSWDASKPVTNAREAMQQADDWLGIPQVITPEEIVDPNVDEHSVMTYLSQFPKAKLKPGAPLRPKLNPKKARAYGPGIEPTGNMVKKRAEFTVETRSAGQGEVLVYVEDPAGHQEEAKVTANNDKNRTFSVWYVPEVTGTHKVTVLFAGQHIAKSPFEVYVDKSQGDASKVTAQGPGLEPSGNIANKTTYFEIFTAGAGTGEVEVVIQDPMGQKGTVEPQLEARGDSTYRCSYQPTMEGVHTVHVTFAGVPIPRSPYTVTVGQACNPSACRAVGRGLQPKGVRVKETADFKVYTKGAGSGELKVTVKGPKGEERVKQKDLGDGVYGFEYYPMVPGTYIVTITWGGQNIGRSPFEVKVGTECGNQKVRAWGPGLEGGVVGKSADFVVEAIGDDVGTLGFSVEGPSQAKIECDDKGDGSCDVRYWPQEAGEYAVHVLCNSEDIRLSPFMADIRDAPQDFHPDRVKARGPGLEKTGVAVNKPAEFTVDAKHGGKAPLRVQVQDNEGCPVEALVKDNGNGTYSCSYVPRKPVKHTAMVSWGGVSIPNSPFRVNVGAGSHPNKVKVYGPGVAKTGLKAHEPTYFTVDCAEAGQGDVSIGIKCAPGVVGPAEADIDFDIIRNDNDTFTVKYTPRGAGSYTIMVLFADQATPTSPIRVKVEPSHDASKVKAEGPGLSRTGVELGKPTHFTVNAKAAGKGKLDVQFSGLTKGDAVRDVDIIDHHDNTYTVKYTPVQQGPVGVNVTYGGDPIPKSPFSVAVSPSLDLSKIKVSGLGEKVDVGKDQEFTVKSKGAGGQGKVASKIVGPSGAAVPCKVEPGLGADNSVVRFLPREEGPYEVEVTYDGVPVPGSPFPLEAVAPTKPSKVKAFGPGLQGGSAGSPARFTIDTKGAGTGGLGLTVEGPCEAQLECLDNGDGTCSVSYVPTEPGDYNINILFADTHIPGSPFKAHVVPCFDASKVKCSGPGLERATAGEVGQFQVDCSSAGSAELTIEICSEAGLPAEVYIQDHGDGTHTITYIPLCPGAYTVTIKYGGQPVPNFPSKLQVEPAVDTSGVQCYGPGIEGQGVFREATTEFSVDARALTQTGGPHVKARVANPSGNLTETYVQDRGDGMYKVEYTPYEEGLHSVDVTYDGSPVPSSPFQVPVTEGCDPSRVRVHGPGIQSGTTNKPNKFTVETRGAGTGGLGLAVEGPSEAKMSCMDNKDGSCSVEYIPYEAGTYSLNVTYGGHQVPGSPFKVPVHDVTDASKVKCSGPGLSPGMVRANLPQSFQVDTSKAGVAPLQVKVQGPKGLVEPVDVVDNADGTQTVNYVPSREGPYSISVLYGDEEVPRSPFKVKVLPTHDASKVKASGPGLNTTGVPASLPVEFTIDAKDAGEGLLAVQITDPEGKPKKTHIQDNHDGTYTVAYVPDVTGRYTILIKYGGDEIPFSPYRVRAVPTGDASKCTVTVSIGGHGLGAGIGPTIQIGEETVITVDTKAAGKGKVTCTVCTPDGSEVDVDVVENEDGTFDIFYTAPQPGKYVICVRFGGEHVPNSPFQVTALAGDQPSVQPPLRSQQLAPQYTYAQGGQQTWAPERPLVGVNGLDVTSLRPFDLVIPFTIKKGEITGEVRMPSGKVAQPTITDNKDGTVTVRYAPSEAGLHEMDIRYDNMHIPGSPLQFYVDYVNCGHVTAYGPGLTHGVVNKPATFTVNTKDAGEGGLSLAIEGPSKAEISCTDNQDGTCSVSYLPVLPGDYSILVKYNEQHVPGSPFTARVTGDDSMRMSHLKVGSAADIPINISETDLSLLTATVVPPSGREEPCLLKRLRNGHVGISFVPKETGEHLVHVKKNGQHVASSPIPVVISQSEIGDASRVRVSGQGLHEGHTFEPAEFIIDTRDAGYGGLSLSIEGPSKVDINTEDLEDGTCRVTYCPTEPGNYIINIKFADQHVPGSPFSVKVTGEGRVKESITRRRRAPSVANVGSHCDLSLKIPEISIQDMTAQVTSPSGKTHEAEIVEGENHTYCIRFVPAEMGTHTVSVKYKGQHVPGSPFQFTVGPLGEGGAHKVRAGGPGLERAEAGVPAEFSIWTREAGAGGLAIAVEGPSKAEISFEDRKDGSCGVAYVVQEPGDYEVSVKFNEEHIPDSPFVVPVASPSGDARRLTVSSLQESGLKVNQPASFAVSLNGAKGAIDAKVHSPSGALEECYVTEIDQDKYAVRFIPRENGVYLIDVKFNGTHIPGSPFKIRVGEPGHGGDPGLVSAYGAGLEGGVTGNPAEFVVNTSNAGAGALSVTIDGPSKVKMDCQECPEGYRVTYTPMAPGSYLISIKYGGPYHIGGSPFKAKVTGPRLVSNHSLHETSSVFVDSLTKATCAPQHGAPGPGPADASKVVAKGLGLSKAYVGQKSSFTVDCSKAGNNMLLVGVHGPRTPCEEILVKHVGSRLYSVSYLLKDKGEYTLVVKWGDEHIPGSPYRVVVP

`CC1CCC(C(C)C)C(OCC(O)CN2CC(C)OC(C)C2)C1` (centres unmarked) [Compound 3333]: in experiment [1] (10 μM), the “Go (MOR in anti-Gαo immunoprecipitate), average” value is given as 1426.3; the “Gs/Go-Coupled Ratio, average” value worked out at 0.761; the “Gs/olf (MOR in anti-Gαs/olf immunoprecipitate), average” value is given as 1079.0. Moreover, in experiment [1] (100 μM), the “Go (MOR in anti-Gαo immunoprecipitate), average” value was found to be 1418.8; the “Gs/Go-Coupled Ratio, average” value was 0.756; the “Gs/olf (MOR in anti-Gαs/olf immunoprecipitate), average” value is 1064.8. At μ opiate receptor (MOR) (listed as A3333), the “[35S]GTPγS binding to Gαo, FLNA-binding compound as agonist 0.1 μM” value (“[35S]GTPγS binding to Gαo … as agonist 0.1 μM” for short) worked out at 170.7%; the “[35S]GTPγS binding to Gαo, FLNA-binding compound as agonist 1 μM + BFNA” value (“[35S]GTPγS binding … as agonist 1 μM + BFNA” below) was determined as 65.9%; the “[35S]GTPγS binding to Gαo, FLNA-binding compound as agonist 1 μM” value worked out at 328.3%.
The inhibition is the relative decrease from the control value, in per cent. Regarding `OC(COc1ccccc1Br)CN1CCN(CCN2CCOCC2)CC1` (centres unmarked) [Compound A0064], in experiment [2] (32 mg/kg), the mean maximum antinociception entry was “about 50%” and the “time of maximum antinociception” value was 30 to 50 min. Also, in experiment [3] (read-out: Percent inhibition of FITC-NLX binding, 0.01 μM, 0.01 μM compound, 10 nM FITC-NLX), the inhibition at 0.01 µM was 41.8%. The inhibition at 0.1 µM in experiment [3] (read-out: Percent inhibition of FITC-NLX binding, 0.1 μM, 0.1 μM compound, 10 nM FITC-NLX) was determined as 46.2%. Further, in experiment [3] (read-out: Percent inhibition of FITC-NLX binding, 1 μM, 1 μM compound, 10 nM FITC-NLX), the inhibition at 1 µM was 53.6%. Further, at μ opiate receptor (MOR), the “[35S]GTPγS binding to Gαo … as agonist 0.1 μM” value was 219.2%; the “[35S]GTPγS binding … as agonist 1 μM + BFNA” value was found to be 43.7%; the “[35S]GTPγS binding to Gαo, FLNA-binding compound as agonist 1 μM” value was 262.9%; the “% DAMGO + BFNA” value turned out to be 126.7%. Also, at μ opiate receptor (MOR), the “% DAMGO (0.1 μM)” value turned out to be 127.4% and the “% DAMGO (1 μM)” value is listed as 119.7%.
For `CC1CCC(C(C)C)C(OCC(O)CN2CCc3ccccc32)C1` (centres unmarked) [Compound A0065], the mean maximum antinociception entry in experiment [2] (oral, 56 mg/kg) was “about 25%”. In addition, the inhibition at 0.01 µM in experiment [3] (read-out: Percent inhibition of FITC-NLX binding, 0.01 μM) came to 38.7%. Further, the inhibition at 0.1 µM in experiment [3] (read-out: Percent inhibition of FITC-NLX binding, 0.1 μM) amounted to 50%. Moreover, the inhibition at 1 µM in experiment [3] (read-out: Percent inhibition of FITC-NLX binding, 1 μM) is 50.8%. Further, at μ opiate receptor (MOR), the “[35S]GTPγS binding to Gαo … as agonist 0.1 μM” value is given as 197.6%; the “[35S]GTPγS binding … as agonist 1 μM + BFNA” value was 44.9%; the “[35S]GTPγS binding to Gαo, FLNA-binding compound as agonist 1 μM” value turned out to be 266.8%; the “% DAMGO + BFNA” value is 112.5%. Moreover, at μ opiate receptor (MOR), the “% DAMGO (0.1 μM)” value stood at 126.6% and the “% DAMGO (1 μM)” value is recorded as 115.7%.
Take `C=CCN1CC[C@]23c4c5ccc(O)c4O[C@H]2C(=O)CC[C@@]3(O)[C@H]1C5` [NLX, naloxone]: the Kd on filamin A was roughly 4 pM.
For `O=C1CC[C@@]2(O)[C@H]3Cc4ccc(O)c5c4[C@@]2(CCN3CC2CC2)[C@H]1O5` [NTX, naltrexone], at filamin A, the Kd was roughly 4 pM.
